Assay results published in PubChem BioAssay AID2060884 (Molecular Pharmacology Branch, DTP, NCI, 2025).
Values belong to the compound of their own block, whether it stands above or below them.

Tested on: NCI-H929 complex spheroids, viability % test/control
Experiment: Anticancer human tumor NCI-H929 cell line growth inhibition [RAS];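 note: compound exposure lasted seven days before viability was read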
Settings: for IC50: curve of first compound; for viability, T/C: stronger effect = lower value
Source text: RAS pathway inhibitors in Combinations in Complex Spheroids
A high-throughput screen of multi-cell type tumor spheroids was designed to identify active combinations of RAS pathway inhibitors and targeted small molecules. Complex spheroids include a stromal component modeled by human endothelial cells (HUVEC) and fibroblasts modeled by human mesenchymal stem cells (MSCs). The concentration ranges selected for each drug and investigational agent were based upon clinically achievable concentrations if the clinical Cmax of the agent was known.
Compounds. The drugs and investigational agents: abemaciclib (NSC768073), cobimetinib (NSC768068), divarasib (GDC6063, NSC841802), docetaxel (NSC628503), GDC-1971 (RLY-1971, NSC841576), gemcitabine (NSC613327), inavolisib (NSC800729), ipatasertib (NSC767898), KB-0742 (NSC834161), MRTX-1133 (NSC836407), osimertinib (NSC779217), RMC-4630 (NSC839698), RMC-6236 (NSC851965), RMC-6291 (NSC852671), Ro-3306 (NSC812927), sapanisertib (NSC764658), SN-38 (NSC673596), staurosporine (NSC755774), SY5609 (NSC837396), and tovorafenib (DAY101, NSC766906), were obtained from the National Cancer Institute (NCI) Developmental Therapeutics Program Chemical Repository. The FDA-approved anticancer drug set is available from the NCI Developmental Therapeutics Program. […] The stock solutions were prepared in dimethyl sulfoxide (DMSO, Sigma-Aldrich, St. Louis, MO, cat. D2650) at 800-fold the tested concentration and stored at -70 degrees C prior to their use. All drugs and investigational agents were tested over a range starting from a high concentration at or near the clinical Cmax and decreasing in half-log increments. If the clinical Cmax for an agent had not been determined, the highest concentration tested was 10 microM.
Cell Culture. All cells were maintained in an incubator at 37 degrees C and 5% CO2 with 95% humidity. The PDC lines were cultured according to standard operating procedures established by the NCI PDMR. All PDCs were thawed and cultured in Matrigel-coated flasks prepared with a working solution of 1X Ham's F-12 nutrient mix, without supplementation (Invitrogen, Waltham, MA, cat. 11765054), 100 U/mL penicillin-streptomycin (Invitrogen, cat. 15140122), and 2.5% Matrigel (Corning Inc., Corning, NY, cat. 354248) for the first three passages. The 362531-283-R-J2-PDC and 782815-120-R-J1-PDC lines were cultured in 6C/Colon 1B media, which includes advanced DMEM/F-12 (Thermo Fisher Scientific, cat. 12634028), 10 mM HEPES (Thermo Fisher Scientific, cat. 15630080), 1X GlutaMAX supplement (Thermo Fisher Scientific, cat. 35050061), 0.1 mg/mL primocin (InvivoGen, San Diego, CA, cat. ant-pm-2), 10% defined fetal bovine serum, heat inactivated (HyClone Laboratories Inc., Logan, UT, cat. SH30070.03HI), 50% L-WRN conditioned media (ATCC, cat. CRL-3276), 1.25 mM N-Acetyl-L-cysteine (Sigma-Aldrich, cat. A9165), 10 mM nicotinamide (Sigma-Aldrich, cat. N0636), 1X B-27 supplement (Thermo Fisher Scientific, cat. 17504044), 1X N-2 supplement (Thermo Fisher Scientific, cat. 17502048), 50 ng/mL human EGF (Thermo Fisher Scientific, cat. PHG0311), and 10 microM Y-27632 dihydrochloride (Tocris Bioscience, cat. 1254). The K12877-001-R-J1-PDC line was cultured in 6I media, which includes all 6C/Colon 1B media plus 10 ng/mL human FGF-10 (PeproTech, cat. 100-26), 1 ng/mL human FGF-2 (PeproTech, cat. 100-18B), 1 µM prostaglandin E2 (Tocris Bioscience, cat. 2296), […] hydrocortisone (Sigma-Aldrich, cat. H4001), and […] bovine insulin (Sigma-Aldrich, cat. I6634). The K86415-001-R-J1-PDC line was cultured in 6D media, which includes all 6C/Colon 1B media components minus the L-WRN conditioned media. The 485176-168-R4-J1-PDC was cultured in PANC media, which includes all 6C/Colon 1B media plus 100 ng/mL human FGF-10 (PeproTech, cat. 100-26), 500 nM SB-431542 (Selleckchem, cat. S1067), and 10 nM gastrin (Tocris Bioscience, cat. 3006). […]

- IC50 (second compound 0.0316 µM): > 10000 nM
- IC50 (second compound 0.1 µM): > 10000 nM
- IC50 (second compound 0.316 µM): > 10000 nM
- IC50 (second compound 1 µM): > 10000 nM
- IC50 (second compound 3.16 µM): > 10000 nM
- IC50 (second compound 10 µM): > 10000 nM
Structure (SMILES): NC1c2ccccc2OC12CCN(c1cnc3c(N4CCCc5ncccc54)n[nH]c3n1)CC2 (centres undefined) + C#Cc1c(F)ccc2cc(O)cc(-c3ncc4c(N5CC6CCC(C5)N6)nc(OCC56CCCN5CC(F)C6)nc4c3F)c12
- viability, T/C (second compound 0.0316 µM, first compound 0.0316 µM): 100%
- viability, T/C (second compound 0.0316 µM, first compound 0.1 µM): 91.8%
- viability, T/C (second compound 0.0316 µM, first compound 0.316 µM): 104%
- viability, T/C (second compound 0.0316 µM, first compound 1 µM): 100%
- viability, T/C (second compound 0.0316 µM, first compound 3.16 µM): 104%
- viability, T/C (second compound 0.0316 µM, first compound 10 µM): 70.2%
- viability, T/C (second compound 0.1 µM, first compound 0.0316 µM): 95.9%
- viability, T/C (second compound 0.1 µM, first compound 0.1 µM): 98%
- viability, T/C (second compound 0.1 µM, first compound 0.316 µM): 101%
- viability, T/C (second compound 0.1 µM, first compound 1 µM): 101%
- viability, T/C (second compound 0.1 µM, first compound 3.16 µM): 105%
- viability, T/C (second compound 0.1 µM, first compound 10 µM): 64.8%
- viability, T/C (second compound 0.316 µM, first compound 0.0316 µM): 99.2%
- viability, T/C (second compound 0.316 µM, first compound 0.1 µM): 97.4%
- viability, T/C (second compound 0.316 µM, first compound 0.316 µM): 105%
- viability, T/C (second compound 0.316 µM, first compound 1 µM): 99.8%
- viability, T/C (second compound 0.316 µM, first compound 3.16 µM): 104%
- viability, T/C (second compound 0.316 µM, first compound 10 µM): 67.8%
- viability, T/C (second compound 1 µM, first compound 0.0316 µM): 98.3%
- viability, T/C (second compound 1 µM, first compound 0.1 µM): 96.5%
- viability, T/C (second compound 1 µM, first compound 0.316 µM): 106%
- viability, T/C (second compound 1 µM, first compound 1 µM): 106%
- viability, T/C (second compound 1 µM, first compound 3.16 µM): 99.7%
- viability, T/C (second compound 1 µM, first compound 10 µM): 67.2%
- viability, T/C (second compound 3.16 µM, first compound 0.0316 µM): 96.3%
- viability, T/C (second compound 3.16 µM, first compound 0.1 µM): 98.7%
- viability, T/C (second compound 3.16 µM, first compound 0.316 µM): 99%
- viability, T/C (second compound 3.16 µM, first compound 1 µM): 101%
- viability, T/C (second compound 3.16 µM, first compound 3.16 µM): 103%
- viability, T/C (second compound 3.16 µM, first compound 10 µM): 59.5%
- viability, T/C (second compound 10 µM, first compound 0.0316 µM): 95.9%
- viability, T/C (second compound 10 µM, first compound 0.1 µM): 94.7%
- viability, T/C (second compound 10 µM, first compound 0.316 µM): 98.6%
- viability, T/C (second compound 10 µM, first compound 1 µM): 97.3%
- viability, T/C (second compound 10 µM, first compound 3.16 µM): 82.1%
- viability, T/C (second compound 10 µM, first compound 10 µM): 53.6%

- IC50 (second compound 0.000949 µM): 2.23 nM
- IC50 (second compound 0.003 µM): 2.53 nM
- IC50 (second compound 0.00949 µM): 1.94 nM
- IC50 (second compound 0.03 µM): < 0.949 nM
- IC50 (second compound 0.0949 µM): < 0.949 nM
- IC50 (second compound 0.3 µM): < 0.949 nM
Structure (SMILES): CC1(C)CCC(Nc2ncc(C(F)(F)F)c(-c3c[nH]c4c(P(C)(C)=O)c(C#N)ccc34)n2)CN1 (centres undefined) + CCn1c(-c2cc(N3CCN(C)CC3)cnc2C(C)OC)c2c3cc(ccc31)-c1csc(n1)CC(NC(=O)C1CC1C)C(=O)N1CCCC(N1)C(=O)OCC(C)(C)C2
- viability, T/C (second compound 0.000949 µM, first compound 0.000949 µM): 116%
- viability, T/C (second compound 0.000949 µM, first compound 0.003 µM): 26.9%
- viability, T/C (second compound 0.000949 µM, first compound 0.00949 µM): 8.16%
- viability, T/C (second compound 0.000949 µM, first compound 0.03 µM): 6.16%
- viability, T/C (second compound 0.000949 µM, first compound 0.0949 µM): 4.71%
- viability, T/C (second compound 0.000949 µM, first compound 0.3 µM): 3.65%
- viability, T/C (second compound 0.003 µM, first compound 0.000949 µM): 112%
- viability, T/C (second compound 0.003 µM, first compound 0.003 µM): 39.4%
- viability, T/C (second compound 0.003 µM, first compound 0.00949 µM): 10.1%
- viability, T/C (second compound 0.003 µM, first compound 0.03 µM): 7.4%
- viability, T/C (second compound 0.003 µM, first compound 0.0949 µM): 5.4%
- viability, T/C (second compound 0.003 µM, first compound 0.3 µM): 4.64%
- viability, T/C (second compound 0.00949 µM, first compound 0.000949 µM): 91.8%
- viability, T/C (second compound 0.00949 µM, first compound 0.003 µM): 24.4%
- viability, T/C (second compound 0.00949 µM, first compound 0.00949 µM): 8.42%
- viability, T/C (second compound 0.00949 µM, first compound 0.03 µM): 5.44%
- viability, T/C (second compound 0.00949 µM, first compound 0.0949 µM): 5.01%
- viability, T/C (second compound 0.00949 µM, first compound 0.3 µM): 4.22%
- viability, T/C (second compound 0.03 µM, first compound 0.000949 µM): 16.8%
- viability, T/C (second compound 0.03 µM, first compound 0.003 µM): 5.53%
- viability, T/C (second compound 0.03 µM, first compound 0.00949 µM): 2.91%
- viability, T/C (second compound 0.03 µM, first compound 0.03 µM): 2.43%
- viability, T/C (second compound 0.03 µM, first compound 0.0949 µM): 1.95%
- viability, T/C (second compound 0.03 µM, first compound 0.3 µM): 1.14%
- viability, T/C (second compound 0.0949 µM, first compound 0.000949 µM): 2.94%
- viability, T/C (second compound 0.0949 µM, first compound 0.003 µM): 1.38%
- viability, T/C (second compound 0.0949 µM, first compound 0.00949 µM): 1.46%
- viability, T/C (second compound 0.0949 µM, first compound 0.03 µM): 0.67%
- viability, T/C (second compound 0.0949 µM, first compound 0.0949 µM): 0.66%
- viability, T/C (second compound 0.0949 µM, first compound 0.3 µM): 0.53%
- viability, T/C (second compound 0.3 µM, first compound 0.000949 µM): 1.65%
- viability, T/C (second compound 0.3 µM, first compound 0.003 µM): 0.63%
- viability, T/C (second compound 0.3 µM, first compound 0.00949 µM): 0.85%
- viability, T/C (second compound 0.3 µM, first compound 0.03 µM): 1.47%
- viability, T/C (second compound 0.3 µM, first compound 0.0949 µM): 0.57%
- viability, T/C (second compound 0.3 µM, first compound 0.3 µM): 0.6%
